Results: patent publication US20250381179A1, “CHROMAN-BASED COMPOUNDS FOR TREATING CANCER” (priority 2024, published 2025)
Where two headings read alike, the source gives them in different places.

Columns and labels:
ERa = molecular target: T1, ERa (Homo sapiens, UniProt P03372); assay: Binding to human ERa; details: for IC50: read-out: half-maximal inhibitory concentration (IC50) (converted)
T1 sequence (P03372 1-595): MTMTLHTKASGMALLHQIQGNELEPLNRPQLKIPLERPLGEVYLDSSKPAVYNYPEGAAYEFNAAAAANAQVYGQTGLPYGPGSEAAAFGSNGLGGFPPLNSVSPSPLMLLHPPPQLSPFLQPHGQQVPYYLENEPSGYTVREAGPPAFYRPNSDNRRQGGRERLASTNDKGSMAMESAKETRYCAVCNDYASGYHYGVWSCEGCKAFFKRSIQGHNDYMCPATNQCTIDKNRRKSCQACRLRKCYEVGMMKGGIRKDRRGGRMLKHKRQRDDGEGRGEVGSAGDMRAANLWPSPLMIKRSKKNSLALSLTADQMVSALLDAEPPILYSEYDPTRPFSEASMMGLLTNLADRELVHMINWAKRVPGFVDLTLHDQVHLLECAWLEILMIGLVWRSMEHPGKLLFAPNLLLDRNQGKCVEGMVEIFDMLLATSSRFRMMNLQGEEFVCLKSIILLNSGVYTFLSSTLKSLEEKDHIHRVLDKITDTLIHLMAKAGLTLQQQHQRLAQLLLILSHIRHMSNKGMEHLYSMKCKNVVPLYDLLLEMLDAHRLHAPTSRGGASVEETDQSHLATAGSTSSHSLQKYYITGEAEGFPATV

MCF7 cells = assay: MCF7 cell growth inhibition (luminescence-based proliferation assay, CellTiter-Glo)
Procedure: MCF7 cells were obtained from American Type Culture Collection (ATCC). For cell growth assay, MCF7 cells were seeded in 96-well plates at 2000 cells/well in 90 μL of DMEM medium containing 10% fetal bovine serum, and then incubated at 37° C. with 5% CO2 in air overnight. The following day, compound (1-g) and compound (1-h) were administered to the cells by using 1000× compound stock solution prepared in DMSO at concentrations of 3, 1, 0.33, 0.11, 0.037, 0.012, 0.0041, 0.0013, and 0.00046 mM. 1000x compound stock solution was first diluted in culturing medium to 10×, then 10 μL compound medium was added to each well in the cell plates. After administration of compound (1-g) and compound (1-h), the cells were then incubated at 37° C. for 6 days. Upon completion, the plates were equilibrated at room temperature for approximately 10 minutes. 100 μL of CellTiter-Glo® Reagent (Promega) was added to each well. The plates were then incubated at room temperature for 10 minutes and luminescence was recorded by EnSpire plate reader (PerkinElmer).

[1] = Exposure after repeat oral administration in GLP toxicology study, rats; format: in vivo
Excerpt: There were no marked sex-based differences in exposure, but in the 28-day toxicity study of compound (1-g) in rats, exposures were 1.4 to 1.9-fold higher in female rats compared to males.

[2] = molecular target: T2, human cytochrome P450 CYP2C8 (Homo sapiens, UniProt P10632); assay: In vitro metabolism by CYP2C8; format: in vitro ADME
T2 sequence (P10632 1-490): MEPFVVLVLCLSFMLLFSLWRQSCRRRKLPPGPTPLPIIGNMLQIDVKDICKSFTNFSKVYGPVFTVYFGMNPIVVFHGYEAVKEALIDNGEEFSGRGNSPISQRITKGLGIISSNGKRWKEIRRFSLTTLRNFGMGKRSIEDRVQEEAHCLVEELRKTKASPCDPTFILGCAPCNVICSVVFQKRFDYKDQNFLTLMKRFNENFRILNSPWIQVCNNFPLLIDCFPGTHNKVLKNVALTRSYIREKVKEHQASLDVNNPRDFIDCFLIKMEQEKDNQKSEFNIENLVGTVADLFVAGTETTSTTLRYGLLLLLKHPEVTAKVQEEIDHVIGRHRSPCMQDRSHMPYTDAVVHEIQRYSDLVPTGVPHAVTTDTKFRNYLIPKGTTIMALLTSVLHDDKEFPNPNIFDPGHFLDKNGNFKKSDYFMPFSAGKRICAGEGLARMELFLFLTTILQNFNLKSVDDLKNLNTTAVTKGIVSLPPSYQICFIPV

[3] = molecular target: human cytochrome P450 CYP3A4 (Homo sapiens, UniProt P08684); assay: In vitro metabolism by CYP3A4; format: in vitro ADME
Sequence of human cytochrome P450 CYP3A4 (P08684 whole entry): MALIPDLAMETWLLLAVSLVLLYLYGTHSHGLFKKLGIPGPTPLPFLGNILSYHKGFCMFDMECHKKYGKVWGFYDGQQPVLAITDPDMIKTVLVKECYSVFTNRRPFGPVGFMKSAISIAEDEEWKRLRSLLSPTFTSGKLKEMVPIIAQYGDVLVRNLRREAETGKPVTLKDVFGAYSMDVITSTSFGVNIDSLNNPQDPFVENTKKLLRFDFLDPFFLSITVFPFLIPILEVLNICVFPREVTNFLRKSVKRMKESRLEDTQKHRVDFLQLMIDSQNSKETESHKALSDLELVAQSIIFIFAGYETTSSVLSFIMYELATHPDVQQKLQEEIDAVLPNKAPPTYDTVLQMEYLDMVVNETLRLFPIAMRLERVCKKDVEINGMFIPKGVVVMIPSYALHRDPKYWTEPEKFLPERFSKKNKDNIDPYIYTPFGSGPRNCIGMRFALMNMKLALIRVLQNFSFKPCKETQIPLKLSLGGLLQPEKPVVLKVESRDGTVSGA

CYP1A2 = CYP1A2 (Homo sapiens, UniProt P05177); assay: CYP1A2 direct inhibition; format: in vitro ADME; details: highest concentration evaluated (10 μM)
Sequence of CYP1A2 (P05177 whole entry): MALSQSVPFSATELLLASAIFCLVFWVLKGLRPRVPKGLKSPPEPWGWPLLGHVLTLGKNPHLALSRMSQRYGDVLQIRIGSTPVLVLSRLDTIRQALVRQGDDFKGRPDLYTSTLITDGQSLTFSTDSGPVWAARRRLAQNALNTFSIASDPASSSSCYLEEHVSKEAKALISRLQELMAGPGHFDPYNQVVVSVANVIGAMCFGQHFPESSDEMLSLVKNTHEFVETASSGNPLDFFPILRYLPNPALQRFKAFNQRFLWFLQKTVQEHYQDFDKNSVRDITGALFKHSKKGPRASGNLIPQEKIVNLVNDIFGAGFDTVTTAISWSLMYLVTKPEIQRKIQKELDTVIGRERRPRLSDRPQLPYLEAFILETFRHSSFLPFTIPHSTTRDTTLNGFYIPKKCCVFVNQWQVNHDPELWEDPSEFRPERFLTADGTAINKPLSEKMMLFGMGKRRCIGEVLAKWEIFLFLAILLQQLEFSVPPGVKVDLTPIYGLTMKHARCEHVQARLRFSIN

CYP2C8 = molecular target: T3, CYP2C8 (Homo sapiens, UniProt P10632); assay: CYP2C8 direct inhibition; format: in vitro ADME; details: highest concentration evaluated (10 μM)
T3 sequence (P10632 1-490): T2 sequence (P10632 1-490)

CYP2B6 = CYP2B6 induction in vitro (activity, mRNA); format: in vitro ADME
CYP3A4 = CYP3A4 induction in vitro (activity, mRNA); format: in vitro ADME
in vivo = details: male, rat, po
CYP3A = assay: in vitro; details: human

O=C1CC[C@H](N2Cc3cc(N4CCN(CC5CCN(c6ccc([C@@H]7c8ccc(O)cc8OC[C@@H]7c7ccccc7)cc6F)CC5)CC4)ccc3C2=O)C(=O)N1 [compound (1-g), (S)-3-(5-(4-((1-(2-fluoro-4-((3S,4R)-7-hydroxy-3-phenylchroman-4-yl)phenyl)piperidin-4-yl)methyl)piperazin-1-yl)-1-oxoisoindolin-2-yl)piperidine-2,6-dione]
IC50 (ERa): 6.02 nM | Ki (ERa; read-out: inhibitor constant (Ki)): 0.53 nM | IC50 (ERa; same value in ng/mL): 5.91 nM | GI50 (MCF7 cells; Homo sapiens, 144 h, MCF7 cells, 6 days, CellTiter-Glo): 6.2 nM | reduced the tumor growth by (FIG. 3A/3B) (MCF7 cells; MCF7 cell proliferation assay): about 50% | accumulation with repeated dosing [1]: No significant accumulation | exposure (AUC0-24h) versus dose ([1]; repeat oral administration): increased in an approximately dose-dependent manner | metabolism by CYP2C8 [2]: weakly metabolized | metabolism by CYP3A4 [3]: weakly metabolized | CYP1A2 direct inhibition (CYP1A2): did not directly inhibit | CYP2C8 direct inhibition (CYP2C8): did not directly inhibit | CYP2B6 induction (activity or mRNA expression) (CYP2B6): did not significantly induce activity or mRNA expression | CYP3A4 induction (activity or mRNA expression) (CYP3A4): did not significantly induce activity or mRNA expression | NOAEL at 28 day (in vivo): 270 mg/kg/day | inhibition at 10 µM (CYP3A): 31.3%
